# What was measured:
# Test in all cases: relative viability (nuclei count vs DMSO), 5 days (fraction); higher = more cells survive
# [1] = test system: ABC-1
# How it was run: (§1)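 Medians of duplicate plates are given as relative viability. That measure is the nuclei count in treated wells divided by the count in vehicle wells. Counts were taken on 4× images of lung cancer cell lines in 1536-well plates, 5 days after pin-tool dosing the day after seeding with one drug alone or a fixed anchor-drug dose plus five library-drug doses (not always all listed) in √10 steps.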
# [2] = test system: COR-L23
# How it was run: as §1
# [3] = test system: ChaGo-K-1
# How it was run: as §1
# [4] = test system: EPLC-272H
# How it was run: as §1
# [5] = test system: HCC-15
# How it was run: as §1
# [6] = test system: HCC-366
# How it was run: as §1
# [7] = test system: HCC-44
# How it was run: as §1
# [8] = test system: HCC-827
# How it was run: as §1
# [9] = test system: LCLC-103H
# How it was run: as §1
# [10] = test system: NCI-H1355
# How it was run: as §1
# [11] = test system: NCI-H1734
# How it was run: as §1
# [12] = test system: NCI-H1793
# How it was run: as §1
# [13] = test system: NCI-H1944
# How it was run: as §1
# [14] = test system: NCI-H2009
# How it was run: as §1
# [15] = test system: NCI-H2023
# How it was run: as §1
# [16] = test system: NCI-H2085
# How it was run: as §1
# [17] = test system: NCI-H2228
# How it was run: as §1
# [18] = test system: NCI-H2347
# How it was run: as §1
# [19] = test system: NCI-H2405
# How it was run: as §1
# [20] = test system: NCI-H3122
# How it was run: as §1
# [21] = test system: PC-14
# How it was run: as §1
# [22] = test system: SW 1573
# How it was run: as §1
smiles,measurement,setting,value
Cc1cn(-c2cc(NC(=O)c3ccc(C)c(Nc4nccc(-c5cccnc5)n4)c3)cc(C(F)(F)F)c2)cn1 [Nilotinib] + COc1cccc2cc(-c3nc([C@H]4CC[C@H](C(=O)O)CC4)n4ncnc(N)c34)[nH]c12 [OSI-027] (partner 0.5 µM),relative viability,[1]; first compound 0.001 µM,0.447
same,relative viability,[1]; first compound 0.003162 µM,0.479
same,relative viability,[1]; first compound 0.01 µM,0.45
same,relative viability,[1]; first compound 0.03162 µM,0.376
same,relative viability,[1]; first compound 0.1 µM,0.237
same,relative viability,[2]; first compound 0.001 µM,0.622
same,relative viability,[2]; first compound 0.003162 µM,0.957
same,relative viability,[2]; first compound 0.01 µM,0.92
same,relative viability,[2]; first compound 0.03162 µM,0.462
same,relative viability,[2]; first compound 0.1 µM,0.596
same,relative viability,[3]; first compound 0.001 µM,0.49
same,relative viability,[3]; first compound 0.003162 µM,0.643
same,relative viability,[3]; first compound 0.01 µM,0.485
same,relative viability,[3]; first compound 0.03162 µM,0.471
same,relative viability,[3]; first compound 0.1 µM,0.274
same,relative viability,[4]; first compound 0.001 µM,0.24
same,relative viability,[4]; first compound 0.003162 µM,0.275
same,relative viability,[4]; first compound 0.01 µM,0.325
same,relative viability,[4]; first compound 0.03162 µM,0.246
same,relative viability,[4]; first compound 0.1 µM,0.177
same,relative viability,[5]; first compound 0.001 µM,0.562
same,relative viability,[5]; first compound 0.003162 µM,0.778
same,relative viability,[5]; first compound 0.01 µM,0.775
same,relative viability,[5]; first compound 0.03162 µM,0.435
same,relative viability,[5]; first compound 0.1 µM,0.306
same,relative viability,[6]; first compound 0.001 µM,0.644
same,relative viability,[6]; first compound 0.003162 µM,0.93
same,relative viability,[6]; first compound 0.01 µM,0.663
same,relative viability,[6]; first compound 0.03162 µM,0.203
same,relative viability,[6]; first compound 0.1 µM,0.147
same,relative viability,[7]; first compound 0.001 µM,0.498
same,relative viability,[7]; first compound 0.003162 µM,0.391
same,relative viability,[7]; first compound 0.01 µM,0.43
same,relative viability,[7]; first compound 0.03162 µM,0.505
same,relative viability,[7]; first compound 0.1 µM,0.382
same,relative viability,[8]; first compound 0.003162 µM,0.822
same,relative viability,[8]; first compound 0.01 µM,0.85
same,relative viability,[8]; first compound 0.03162 µM,0.603
same,relative viability,[9]; first compound 0.001 µM,0.406
same,relative viability,[9]; first compound 0.003162 µM,0.58
same,relative viability,[9]; first compound 0.01 µM,0.508
same,relative viability,[9]; first compound 0.03162 µM,0.432
same,relative viability,[9]; first compound 0.1 µM,0.407
same,relative viability,[10]; first compound 0.001 µM,0.384
same,relative viability,[10]; first compound 0.003162 µM,0.388
same,relative viability,[10]; first compound 0.01 µM,0.324
same,relative viability,[10]; first compound 0.03162 µM,0.314
same,relative viability,[10]; first compound 0.1 µM,0.329
same,relative viability,[11]; first compound 0.001 µM,0.57
same,relative viability,[11]; first compound 0.003162 µM,0.595
same,relative viability,[11]; first compound 0.01 µM,0.64
same,relative viability,[11]; first compound 0.03162 µM,0.435
same,relative viability,[11]; first compound 0.1 µM,0.261
same,relative viability,[12]; first compound 0.001 µM,0.269
same,relative viability,[12]; first compound 0.003162 µM,0.261
same,relative viability,[12]; first compound 0.01 µM,0.223
same,relative viability,[12]; first compound 0.03162 µM,0.188
same,relative viability,[12]; first compound 0.1 µM,0.173
same,relative viability,[13]; first compound 0.001 µM,0.418
same,relative viability,[13]; first compound 0.003162 µM,0.407
same,relative viability,[13]; first compound 0.01 µM,0.367
same,relative viability,[13]; first compound 0.03162 µM,0.324
same,relative viability,[14]; first compound 0.001 µM,0.486
same,relative viability,[14]; first compound 0.003162 µM,0.624
same,relative viability,[14]; first compound 0.01 µM,0.765
same,relative viability,[14]; first compound 0.03162 µM,0.556
same,relative viability,[14]; first compound 0.1 µM,0.357
same,relative viability,[15]; first compound 0.001 µM,0.303
same,relative viability,[15]; first compound 0.003162 µM,0.3
same,relative viability,[15]; first compound 0.01 µM,0.313
same,relative viability,[15]; first compound 0.03162 µM,0.277
same,relative viability,[15]; first compound 0.1 µM,0.195
same,relative viability,[16]; first compound 0.001 µM,0.695
same,relative viability,[16]; first compound 0.003162 µM,0.549
same,relative viability,[16]; first compound 0.01 µM,0.699
same,relative viability,[16]; first compound 0.03162 µM,0.428
same,relative viability,[16]; first compound 0.1 µM,0.467
same,relative viability,[17]; first compound 0.003162 µM,0.631
same,relative viability,[17]; first compound 0.01 µM,0.588
same,relative viability,[17]; first compound 0.03162 µM,0.449
same,relative viability,[17]; first compound 0.1 µM,0.217
same,relative viability,[18]; first compound 0.001 µM,0.512
same,relative viability,[18]; first compound 0.003162 µM,0.429
same,relative viability,[18]; first compound 0.01 µM,0.388
same,relative viability,[18]; first compound 0.03162 µM,0.364
same,relative viability,[18]; first compound 0.1 µM,0.419
same,relative viability,[19]; first compound 0.001 µM,0.594
same,relative viability,[19]; first compound 0.003162 µM,0.617
same,relative viability,[19]; first compound 0.01 µM,0.568
same,relative viability,[19]; first compound 0.03162 µM,0.609
same,relative viability,[19]; first compound 0.1 µM,0.432
same,relative viability,[20]; first compound 0.001 µM,0.961
same,relative viability,[20]; first compound 0.003162 µM,1.33
same,relative viability,[20]; first compound 0.01 µM,1.24
same,relative viability,[20]; first compound 0.03162 µM,0.66
same,relative viability,[20]; first compound 0.1 µM,0.467
same,relative viability,[21]; first compound 0.001 µM,0.611
same,relative viability,[21]; first compound 0.003162 µM,1.03
same,relative viability,[21]; first compound 0.01 µM,0.846
same,relative viability,[21]; first compound 0.03162 µM,0.312
same,relative viability,[21]; first compound 0.1 µM,0.254
same,relative viability,[22]; first compound 0.001 µM,0.566
same,relative viability,[22]; first compound 0.003162 µM,0.751
same,relative viability,[22]; first compound 0.01 µM,0.72
same,relative viability,[22]; first compound 0.03162 µM,0.276
same,relative viability,[22]; first compound 0.1 µM,0.155

# From the supplement of paper PMC10307832
